Test system: Zea mays Dekalb Hybrid DKC68-26RIB
Assay: Stomatal conductance (LI-6400XT) of sprayed maize plants
Format: in vivo
Conditions: EC formulation plus 1% Crop Oil Concentrate, foliar spray 2 grams/acre, measured next morning (FIG. 7)
Source text: FIG. 7 is a boxplot representing the distribution of stomatal conductance (mmol/m^2/s) measurements taken via LI-6400XT on Zea mays plants treated with EC formulation blank and Crop Oil Concentrate (control; EC) or strigolactone molecule MBS-127, EC formulation blank and Crop Oil Concentrate (MBS-127+EC). […] Letters define significant classes with P<0.05. Points show observations falling outside of the whiskers and have been jittered along the x-axis to avoid overlap.
Water transport is closely intertwined with many vital plant processes, including photosynthesis, translocation, mineral nutrition, growth, and plays a critical role in defining the yield potential of a crop field (Azizian, A., & Sepaskhah, A. R. “Maize response to water, salinity and nitrogen levels: yield-water relation, water-use efficiency and water uptake reduction function,” International Journal of Plant Production (2014) Vol. 8(2), pp. 183-214). The compounds of formulas described herein induce increased leaf conductance in the leaves of intact Z. mays plants (FIG. 7).
In this experiment maize (Zea mays Dekalb Hybrid DKC68-26RIB) plants were grown in a greenhouse in one-gallon pots filled with Sunshine #2 soil-less growing mix. […] Leaves were acclimated within the LI6400XTR sensor head until gas exchange measurements had stabilized for conductance and then the conductance for that leaf determined.

In the case of `COC(=O)/C=C/OC1C=C(C)C(=O)O1` (stereo not shown) [MBS-127, 3-(4-Methyl-5-oxo-2,5-dihydro-furan-2-yloxy)-acrylic acid methyl ester], the “increase in stomatal conductance compared to the control group” value is reported as 60%.

Source: US20230406821A1, “STRIGOLACTONE DERIVATIVES” (Plant Response, Inc., priority 2017, published 2023)
